Literature values, collected in publication PMC6173509, “C-3- and C-4-Substituted Bicyclic Coumarin Sulfamates as Potent Steroid Sulfatase Inhibitors” (ACS Omega, 2018).

Experiments:
[1] = rodent; cited from earlier work
steroid sulfatase (STS) [2] = biological target: T1, steroid sulfatase (STS) (Homo sapiens, UniProt P08842); design: endogenous in cells; host or cells: MCF-7 breast cancer cells; details: cited from earlier work
T1 sequence (P08842 22-583): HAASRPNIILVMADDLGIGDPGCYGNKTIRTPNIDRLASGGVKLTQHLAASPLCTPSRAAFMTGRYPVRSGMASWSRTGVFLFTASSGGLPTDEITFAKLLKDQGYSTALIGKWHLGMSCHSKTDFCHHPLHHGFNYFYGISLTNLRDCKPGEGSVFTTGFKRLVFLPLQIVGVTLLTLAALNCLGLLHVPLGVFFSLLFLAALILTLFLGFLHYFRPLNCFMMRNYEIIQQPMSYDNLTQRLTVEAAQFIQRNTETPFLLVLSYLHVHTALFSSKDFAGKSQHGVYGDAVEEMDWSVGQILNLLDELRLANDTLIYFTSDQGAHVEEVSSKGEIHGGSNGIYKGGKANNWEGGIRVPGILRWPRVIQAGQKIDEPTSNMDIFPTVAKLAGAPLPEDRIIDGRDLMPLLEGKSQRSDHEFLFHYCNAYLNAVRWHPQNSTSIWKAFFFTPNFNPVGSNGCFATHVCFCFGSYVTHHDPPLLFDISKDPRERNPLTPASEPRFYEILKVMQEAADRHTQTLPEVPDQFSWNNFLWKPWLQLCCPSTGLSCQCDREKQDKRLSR

steroid sulfatase (STS) [3] = biological target: T1, steroid sulfatase (STS); design: a placental microsomal preparation from a sulfatase-positive human placenta from a normal term pregnancy; from tissue; host or cells: human placenta (microsomal preparation); details: cited from earlier work

In the case of `Cc1cc(=O)oc2cc(OS(N)(=O)=O)ccc12` [compound 3, 4-methylcoumarin-7-O-sulfamate], the estrogenic activity [1] is listed as “no rodent estrogenic activity”, the “% Inhibition of STS Activity in Intact MCF-7 Breast Cancer Cells at 0.01 μM” value (steroid sulfatase (STS) [2]; 0.01 μM inhibitor) is listed as less than 10% and the “% Inhibition of STS Activity in Intact MCF-7 Breast Cancer Cells at 0.1 μM” value (steroid sulfatase (STS) [2]; 0.1 μM inhibitor) is listed as 43%. The “% Inhibition of STS Activity in Placental Microsomes at 0.1 μM” value (steroid sulfatase (STS) [3]; 0.1 μM inhibitor) was less than 10% and the “% Inhibition of STS Activity in Placental Microsomes at 1 μM” value (steroid sulfatase (STS) [3]; 1 μM inhibitor) was 63%.
